The conditions of series [1]: marketed products and foods listed for comparison; cited from earlier work.
For series [2] the following is noted: marketed products and foods listed for comparison; cited from earlier work. The source holds these as a separate data set.
Series [3] can be described thus: ORAC assay, phenolic compounds found in strawberries. The series is classed as biochemical. As to conditions: strawberry combinations and individual antioxidants; values per gram. The source says: FIG. 5 provides the structures. […] Solubility was checked after thawing and dilution. […] All possible combinations of two compounds were mixed on an equal volume basis after being prepared at the concentrations found in Table 4 to ensure relative concentrations were maintained. Mixtures were then further diluted to match the lowest individual compound molarity to fit the Trolox standard curve. […] The same pattern was repeated for combinations of four: the top three synergistic combinations of three were combined with all possible fourth compounds. No statistically significant increases in antioxidant capacity were found for combinations of four. […] Combinations were prepared on the same day of their ORAC assay. ORAC assays were carried out according to Dávalos et al. […] Parameters of the assay were as follows: reader temperature: 37 degrees C., cycle number, 120; cycle time, 60 seconds; shaking mode, 3 seconds of orbital shaking before each cycle. A fluorescence filter with an excitation wavelength of 485/20 nm and an emission wavelength of 520/20 nm was used. Samples were prepared in 96-well plates in a mirror fashion, based on a planned layout. Each mirrored duplicate was averaged and counted as one data point. All samples were measured in quadruplicate (eight wells total) to obtain necessary statistical power. […] The data were analyzed using a Microsoft Excel 2007 (Microsoft, Redmond, Wash., USA) spreadsheet to determine area under the curve and to convert the data to Trolox equivalents based on the Trolox standard curve. […] Likewise, for combinations of three and four, the difference was calculated by subtracting the average of the individual three or four compounds from the combination. […] Difference=(combination abc)−(combination ab+individual c) (7) Difference=(combination abcd)−(combination abc+d) (8)

The nature of series [4]: Solubility on stock solution preparation. As to conditions: weighable concentrations, stock solution in methanol / NaOH.
Protocol: Because of the high water content of oranges, no density adjustment was made. Compounds were prepared assuming 100 g was 100 mL in volume. All compounds except hesperidin and luteolin were weighed (10× to 1000× of Table 1 concentration to facilitate weighing) and dissolved in methanol. […] The phenolic stock solutions were stored in 1 mL aliquots at −20.C. Phenolics were brought to RT, vortexed, and diluted in 7:3 (v:v) acetone:water to match the fruit concentrations in Table 1. To fit the Trolox standard curve (see below for assay description), compounds were further diluted in 7:3 (v:v) acetone:water to the following molar concentrations prior to transfer to the 96-well plate: chlorogenic acid, 10.7 μM; hesperidin, 10.2 μM; luteolin, 2.45 μM; myricetin, 0.786 μM; naringenin, 2.61 μM; pcoumaric acid, 1.95 μM; and quercetin, 6.62 μM. Solubility was checked after thawing and dilution. All work involving phenolic compounds, fluorescein, and Trolox was performed in dark conditions to minimize degradation.
It was assumed that 1 g fruit puree was 1 ml in volume for sample preparation, as a density adjustment would not change relative concentrations that would be tested. All compounds except ellagic acid were weighed then dissolved in methanol. […] The phenolic stock solutions were stored in 1 mL aliquots at −20° C. […]
The conditions of series [5]: published values (Jorgensen & Skibsted 1998; Foley et al. 1999); cited from earlier work.

Results on seven compounds are retold here after patent publication US20110136245A1, “SYNERGISTIC INTERACTIONS OF PHENOLIC COMPOUNDS FOUND IN FOOD” (priority 2009, published 2011).

The structures appear in SMILES notation.

`O=C1O[C@H]([C@@H](O)CO)C(O)=C1O` [ascorbic acid (vitamin C), ascorbic acid]: in series [1], the “ORAC Value” is recorded as 2,000 mol Trolox Equivalents/g of mixture. Moreover, in series [2], the “ORAC Value (μmol Trolox Equivalents/g of mixture)” value is on record as 2,000 μmol Trolox Equivalents/g of mixture.
With `O=c1oc2c(O)c(O)cc3c(=O)oc4c(O)c(O)cc1c4c23` [ellagic acid], the ORAC Value (µmol Trolox equivalents/g) in series [3] was 7820 µmol Trolox equivalents/g.
As for `COc1ccc([C@@H]2CC(=O)c3c(O)cc(O[C@@H]4O[C@H](CO[C@@H]5O[C@@H](C)[C@H](O)[C@@H](O)[C@H]5O)[C@@H](O)[C@H](O)[C@H]4O)cc3O2)cc1O` [hesperidin], the solubility result in series [4] was “only fully soluble at weighable concentrations in a basic solution”.
Take `O=c1c(O)c(-c2ccc(O)cc2)oc2cc(O)cc(O)c12` [kaempferol]: the one-electron reduction potential in series [5] was 0.39 V.
Consider `O=C(O)/C=C/c1ccc(O)cc1` [p-coumaric acid], for which, in series [3], the ORAC Value (µmol Trolox equivalents/g) was found to be 20500 µmol Trolox equivalents/g. Moreover, in series [5], the one-electron reduction potential is given as 0.59 V.
Take `O=c1c(O[C@@H]2O[C@H](CO)[C@@H](O)[C@H](O)[C@H]2O)c(-c2ccc(O)c(O)c2)oc2cc(O)cc(O)c12` [quercetin-3-glucoside]: in series [3], the ORAC Value (µmol Trolox equivalents/g) amounted to 20300 µmol Trolox equivalents/g.
As to `O=c1c(O)c(-c2ccc(O)c(O)c2)oc2cc(O)cc(O)c12` [quercetin], the one-electron reduction potential in series [5] is 0.29 V.
